Assay results: US20120157421A1, “17Beta-Alkyl-17Alpha-oxy-estratrienes” (BAYER PHARMA AKTIENGESELLSCHAFT, priority 2009, published 2012)

Experiments:
[1] = metabolic stability in human liver microsomes; assay type: in vitro ADME; details: estimated maximum oral bioavailability from human liver microsome incubation; 0.3 μM, 0.5 mg/ml protein, 37° C., 60 min
Description: The metabolic stability of test substances was determined by incubations in a suspension with human liver microsomes adjusted to a protein content of 0.5 mg/ml, at a concentration of 0.3 μM. The incubation volume was 3.03 ml, where 2.4 ml of a microsome suspension in phosphate buffer at pH 7.4 (sodium phosphate buffer 100 mM (NaH2PO4×H2O+Na2HPO4×2H2O) were initially charged, which were activated by addition of 0.6 ml of a cofactor mix (consisting of 1.2 mg of NADP, 3 IU of glucose 6-phosphate dehydrogenase, 14.6 mg of glucose 6-phosphate and 4.9 mg of MgCl2 in phosphate buffer, pH 7.4). The assay was started by addition of 30 μL of a test substance stock solution, where the composition of the stock solution was such that the solvent concentrations during the incubation were <0.2% for DMSO and <1% for methanol. The incubations were carried out at an incubation temperature of 37° C. over a period of 60 minutes, during which time the microsomes were kept in a homogeneous suspension by continuous stirring (Tec Control Shaker RS 485 at 300 rpm). At 6 different points in time (2, 8, 16, 30, 45 & 60 min), aliquots of in each case 250 μl were removed and immediately added to the same volume of ice-cold methanol and covered.
The decrease in concentrations over time were used to determine the half-life of the test substance in the microsomal incubation mixture described above, which in turn was used to calculate the “intrinsic clearance”, the maximum liver microsome rate for the metabolic elimination of the test substance. This “intrinsic clearance” for its part can be used together with various physiological parameters to estimate the maximum metabolic clearance in man, where the principle mentioned above is only capable of representing phase I metabolic reactions (typically: oxidoreductive reactions of Zytochrom P450 enzymes or flavin monooxigenase, and also hydrolytic reactions of esterases and amidases). Physiological parameters are: human liver blood flow: 1.3 l/kg/h; specific liver weight (per kg of body weight): 21 g/kg; microsomal protein content: 40 mg/g of liver. Furthermore, assuming that (i) the resorption of the test substance in humans is 100%, and (ii) the estimated metabolic clearance can be calculated as first pass, a maximum oral bioavailability (Fmax) was estimated.
Formulae & brief illustrations: CL intrinsic-apparent [in ml/(min*mg of protein)]: reflects the elimination constant kel (in min-1) of the test substance in the incubation mixture, divided by the microsomal protein content ([…]). CL intrinsic [in l(h*kg)]: maximum capability of the liver (microsomes) for metabolic elimination of the test substance, unless the liver blood flow is the limiting factor (kel*liver weight)/liver proportion (microsomal content) in the incubation. CL blood-well stirred [in l/(h*kg)]: estimated blood clearance (via Phase 1 metabolism): (QH*CL intrinsic)/(QH+CL intrinsic). Fmax [in %]: maximum bioavailability after oral administration of the test substance: (1-CL blood-well stirred/QH)*100.

[2] = test system: uterus growth in rats with simultaneous administration of oestradiol benzoate (EB); test: uterus growth test in infant rats, p.o. (test for antioestrogen action); assay type: in vivo, rat; details: inhibition of uterus growth relative to EB control; infant female rats; 0.5 μg EB/0.1 ml s.c. plus test compound p.o. in the range of 0.03 mg/kg body weight, once daily for three days
Description: To examine the efficacy of the compounds according to the invention, in vivo tests with infant rats were carried out. To this end, the growth of the uterus with peroral administration (p.o.) of the pharmaceutical was examined (test for antioestrogen action).
The principle of this method is to investigate the effect of an administration of compounds having antioestrogen action with simultaneous administration of oestrogens. In rodents, the administration of oestrogens results in an increased weight of the uterus (both by proliferation and by hydropexia). This growth can be inhibited in a dosage-related manner by simultaneous administration of compounds with antioestrogen action.
For the tests, infant female rats having a weight of 35-45 g were examined at the start of the experiment. Five to six animals per dose were tested. For the p.o. administration, the substances were dissolved in one part of ethanol (E) and made up with nine parts of peanut oil (PO). For acclimatization, the young rats just dropped by the mothers were delivered one day before the start of the treatment and immediately supplied with food—right in the cage. For three days, the animals were then treated in combination with 0.5 μg of oestradiol benzoate (EB) once per day. EB was always administrated subcutaneously (s.c.), whereas the test substance was administered p.o. 24 hours after the last administration, the animals were weighed and killed, and the uteri were removed. The moist weights (less contents) of the prepared uteri were determined. The following control studies were carried out: for a negative control, 0.2 ml of an E/PO mixture was administered per animal and day. […]
For each group, the means with standard deviation (X±SD) and the significance of the differences to the control group (EB) of the relative organ weights (mg/100 g of body weight) were determined in the Dunnett test (p<0.05). The inhibition (in %) relative to the EB control was determined using a calculation programme. The relative efficacy of the test substances was calculated by covariance and regression analysis.

## CN(CCCCCCCC(F)(F)C(F)(F)F)CCCCCC1Cc2c(ccc(O)c2Cl)C2[C@@H]1C1CC[C@@](C)(O)[C@@]1(C)C[C@@H]2F (stereo partly drawn) [Example 4, 4-Chloro-11β-fluoro-17β-methyl-7α-[5-[methyl(8,8,9,9,9-pentafluorononyl)amino]pentyl]-oestra-1,3,5(10)-triene-3,17α-diol]
[1]
  Fmax (micros.) [%]: 39%

## C[C@]1(O)CCC2[C@@H]3C(CCCCCN4CCC[C@H]4CCCCCCC(F)(F)C(F)(F)F)Cc4cc(O)ccc4C3[C@@H](F)C[C@@]21C (stereo partly drawn) [Example C2, 11β-Fluoro-17α-methyl-7α-[5-[(2R)-2-(7,7,8,8,8-pentafluorooctyl)-1-pyrrolidinyl]pentyl]-oestra-1,3,5(10)-triene-3,17β-diol, reference compound]
[1]
  Fmax (micros.) [%]: 9%

## C[C@]12C[C@H](F)C3c4ccc(O)cc4CC(CCCCCN4CCC[C@H]4CCCCCCC(F)(F)C(F)(F)F)[C@H]3C1CC[C@@]2(C)O (stereo partly drawn) [Example 2, 11β-Fluoro-17β-methyl-7α-[5-[(2R)-2-(7,7,8,8,8-pentafluorooctyl)-1-pyrrolidinyl]pentyl]-oestra-1,3,5(10)-triene-3,17α-diol]
[2]
  Inhibition [%]: 70%
[1]
  Fmax (micros.) [%]: 36%

## CN(CCCCCCCC(F)(F)C(F)(F)F)CCCCCC1Cc2c(ccc(O)c2Br)C2[C@@H]1C1CC[C@@](C)(O)[C@@]1(C)C[C@@H]2F (stereo partly drawn) [Example 5, 4-Bromo-11β-fluoro-17β-methyl-7α-[5-[methyl(8,8,9,9,9-pentafluorononyl)amino]pentyl]oestra-1,3,5(10)-triene-3,17α-diol]
[1]
  Fmax (micros.) [%]: 55%

## C[C@]12C[C@H](F)C3c4cc(Cl)c(O)c(Cl)c4CC(CCCCCN4CCC[C@H]4CCCCCCC(F)(F)C(F)(F)F)[C@H]3C1CC[C@@]2(C)O (stereo partly drawn) [Example 10, 2,4-Dichloro-11β-fluoro-17β-methyl-7α-[5-[(2R)-2-(7,7,8,8,8-pentafluorooctyl)-1-pyrrolidinyl]pentyl]oestra-1,3,5(10)-triene-3,17α-diol]
[1]
  Fmax (micros.) [%]: 34%

## C[C@]12C[C@H](F)C3c4ccc(O)cc4CC(CCCCCN4CCC[C@H]4CCCCCC(F)(F)C(F)(F)F)[C@H]3C1CC[C@@]2(C)O (stereo partly drawn) [Example 3, 11β-Fluoro-17β-methyl-7α-[5-[(2R)-2-(6,6,7,7,7-pentafluoroheptyl)-1-pyrrolidinyl]pentyl]oestra-1,3,5(10)-triene-3,17α-diol]
[2]
  Inhibition [%]: 40%
[1]
  Fmax (micros.) [%]: 40%

## C[C@]12C[C@H](F)C3c4ccc(O)c(Br)c4CC(CCCCCN4CCC[C@H]4CCCCCCC(F)(F)C(F)(F)F)[C@H]3C1CC[C@@]2(C)O (stereo partly drawn) [Example 6, 4-Bromo-11β-fluoro-17β-methyl-7α-[5-[(2R)-2-(7,7,8,8,8-pentafluorooctyl)-1-pyrrolidinyl]pentyl]oestra-1,3,5(10)-triene-3,17α-diol]
[1]
  Fmax (micros.) [%]: 34%

## CN(CCCCCCCC(F)(F)C(F)(F)F)CCCCCC1Cc2cc(O)ccc2C2[C@@H]1C1CC[C@](C)(O)[C@@]1(C)C[C@@H]2F (stereo partly drawn) [Example C1, 11β-Fluoro-17α-methyl-7α-[5-[methyl(8,8,9,9,9-pentafluorononyl)amino]pentyl]oestra-1,3,5(10)-triene-3,17β-diol, reference compound]
[1]
  Fmax (micros.) [%]: 9%

## C[C@]12C[C@H](F)C3c4ccc(O)c(Br)c4CC(CCCCCN4CCC[C@H]4CCCCCC(F)(F)C(F)(F)F)[C@H]3C1CC[C@@]2(C)O (stereo partly drawn) [Example 8, 4-Bromo-11β-fluoro-17β-methyl-7α-[5-[(2R)-2-(6,6,7,7,7-pentafluoroheptyl)-1-pyrrolidinyl]pentyl]oestra-1,3,5(10)-triene-3,17α-diol]
[1]
  Fmax (micros.) [%]: 48%

## CN(CCCCCCCC(F)(F)C(F)(F)F)CCCCCC1Cc2cc(O)ccc2C2[C@@H]1C1CC[C@@](C)(O)[C@@]1(C)C[C@@H]2F (stereo partly drawn) [Example 1, [5-(11β-Fluoro-3,17α-dihydroxy-17β-methyloestra-1,3,5(10)-trien-7α-yl)pentyl](methyl)(8,8,9,9,9-pentafluorononyl)amine]
[2]
  Inhibition [%]: 42-59%
[1]
  Fmax (micros.) [%]: 39%

## C[C@]12C[C@H](F)C3c4ccc(O)c(Cl)c4CC(CCCCCN4CCC[C@H]4CCCCCCC(F)(F)C(F)(F)F)[C@H]3C1CC[C@@]2(C)O (stereo partly drawn) [Example 7, 4-Chloro-11β-fluoro-17β-methyl-7α-[5-[(2R)-2-(7,7,8,8,8-pentafluorooctyl)-1-pyrrolidinyl]pentyl]oestra-1,3,5(10)-triene-3,17α-diol]
[1]
  Fmax (micros.) [%]: 47%

## C[C@]1(O)CCC2[C@@H]3C(CCCCCN4CCC[C@H]4CCCCCC(F)(F)C(F)(F)F)Cc4cc(O)ccc4C3[C@@H](F)C[C@@]21C (stereo partly drawn) [Example C3, 11β-Fluoro-17α-methyl-7α-[5-[(2R)-2-(6,6,7,7,7-pentafluoroheptyl)-1-pyrrolidinyl]pentyl]oestra-1,3,5(10)-triene-3,17β-diol, reference compound]
[1]
  Fmax (micros.) [%]: 8%

## C[C@]12C[C@H](F)C3c4ccc(O)c(Cl)c4CC(CCCCCN4CCC[C@H]4CCCCCC(F)(F)C(F)(F)F)[C@H]3C1CC[C@@]2(C)O (stereo partly drawn) [Example 9, 4-Chloro-11β-fluoro-17β-methyl-7α-[5-[(2R)-2-(6,6,7,7,7-pentafluoroheptyl)-1-pyrrolidinyl]pentyl]oestra-1,3,5(10)-triene-3,17α-diol]
[1]
  Fmax (micros.) [%]: 42%
